Reference: patent US6391915B2, “Propanolamine derivatives” (Fujisawa Pharmaceutical Co., Ltd., priority 1997, dated 2002)

How the values were obtained:
[1] = test system: isolated non-pregnant rat uterus; experiment: Effect on isolated non-pregnant rat uterus (spontaneous contractions, organ bath); type: cell-based; conditions: 20 min; female SD rat uterus, estradiol-induced oestrus, Locke solution, 37° C., spontaneous contractions observed over 20 minutes
Procedure: Effect on isolated non-pregnant rat uterus
Female SD rats (150-180 g) were used. 48 and 24 hours prior to use, rats were given estradiol (ovahormon benzoat Trademark, Teikoku Hormone Mfg. Co., Ltd.) subcutaneously at a dose of 40 μg/rat to induce oestrus. The animals were killed and uteri were removed. Each strip was placed in an organ bath containing 25 ml Locke solution aerating with 95% O2, 5% CO2 at 37° C. under 1 g tension. Contractions were recorded isometrically. After the spontaneous contractions were of a uniform size, test compound was added to organ bath. The motility was observed over a 20 minutes period. Effect of test compound was calculated by comparing contractions before and after test compound.

[2] = test system: isolated rat distal colon; experiment: Effect on isolated rat distal colon (spontaneous contractions, organ bath); type: cell-based; conditions: 0.5 h; male SD rat distal colon strip, Tyrode solution, 37° C., spontaneous contractions observed over 30 minutes
Procedure: Effect on isolated rat distal colon:
Male SD rats (180-230 g) were used. Animals were fasted for 24 hours prior to experiment. Distal colon was removed immediately after sacrifice and placed in an organ bath containing 25 ml Tyrode solution aerating with 95% O2, 5% CO2 at 37° C. The strip was mounted under 0.5 g tension and spontaneous contractions were recorded isometrically. After the mobility was of a uniform size, test compound was added to an organ bath and the contractions were observed over a 30 minutes period. Effect of test compound was calculated by comparing contractions before and after test compound.

Row | melting point | IC50 [1] [nM] | IC50 [2] [nM] | SMILES
1 | 122 to 128 °C |  |  | CCOC(=O)COc1ccc2c(c1)CC(NC[C@H](O)COc1ccccc1)CCC2.Cl (stereo partly shown)
2 | 105 to 109 °C |  |  | C=CCOc1ccccc1OCC(O)CN[C@H]1CCc2ccc(OCC(=O)OCC)cc2C1.O=C(O)C(=O)O (stereo partly shown)
3 | 43 to 58 °C |  |  | CCOC(=O)COc1cccc2c1CCCC(NC[C@H](O)COc1ccccc1)C2.Cl (stereo partly shown)
4 |  | 370 | 4.2 | CCOC(=O)COc1cccc2c1CCCC(N(Cc1ccccc1)C[C@H](O)COc1ccccc1)C2 (stereo partly drawn) [Example 1, (2S)-1-[N-benzyl-(1-ethoxycarbonylmethoxy-6,7,8,9-tetrahydro-5H-benzocyclohepten-6-yl)amino]-3-phenoxy-2-propanol]
5 | 65 °C (dec.) |  |  | O=C([O-])COc1cccc2c1CCCC(NC[C@H](O)COc1ccccc1)C2.[Na+] (stereo partly drawn) [Example 10, sodium [6,7,8,9-tetrahydro-6-[((2S)-2-hydroxy-3-phenoxypropyl)amino]-5H-benzocyclohepten-1-yloxy]acetate]
6 | 166 to 174 °C |  |  | O=C([O-])COc1ccc2c(c1)CCCC(NC[C@H](O)COc1ccccc1)C2.[Na+] (stereo partly drawn) [Example 11, Sodium [6,7,8,9-tetrahydro-6-[((2S)-2-hydroxy-3-phenoxypropyl)amino]-5H-benzocyclohepten-2-yloxy]acetate]
